Paper PMC10482691, “LTP induction by structural rather than enzymatic functions of CaMKII” (Nature, 2023)
Where “and” joins values, the source holds several entries; their conditions need not be identical. Equal values may be shown once.

Tests used:
[1] = molecular target: PKCα(h) (Homo sapiens, UniProt P17252); experiment: Kinase selectivity panel (residual activity at 1 μM); type: biochemical; conditions: inhibitor at 1 μM; read-out: residual kinase activity in % of maximal activity
[2] = tested on: CA3–CA1 Schaffer collateral pathway LTP; experiment: LTP at CA3–CA1 synapse, field recordings in acute hippocampal slices of WT mice; type: cell-based, mouse; conditions: for LTP quantification (fEPSP slope, last 10 min post-HFS, normalized to baseline): 15 min before HFS to 5 min after
[3] = molecular target: CaMKIIα WT (Homo sapiens, UniProt Q9UQM7); experiment: In vitro kinase reactions with CaMKII WT ± NM-PP1 (pT286, pS831); type: biochemical
Description: Fig. 4 The CaMKII mutation F89G impairs ATP binding but binds the ATP-competitive inhibitor NM-PP1 that restores GluN2B binding and LTP-induced synaptic translocation. Data are presented as mean values ± s.e.m. a, Schematic of the pharmacogenetic method of ATP-competitive CaMKII inhibition; enlargement of the CaMKII ATP-binding pocket by the F89G mutation allows for selective binding of the ATP-competitive inhibitor NM-PP1. b, Immunoblots of in vitro kinase reactions at 30 °C including GFP–CaMKII WT, K42M and F89G with GST–GluA1-c tail. […] Correlation indices were measured before and after Ionomycin-induced colocalization of GFP–CaMKII (WT, K42M and F89G) with mCherry-2BC, represented as change in the correlation index (vehicle: n = 22, 17, 12 cells; NM-PP1: n = 20, 24, 13 cells; one-way ANOVA, Tukey’s multiple comparisons test). […] CaMKII synaptic enrichment was measured before and after cLTP (n = 13, 14, 14 cells; RM two-way ANOVA with Šídák’s multiple comparisons test). […] CaMKII synaptic enrichment was measured before and after cLTP (n = 7, 6, 7 cells; RM two-way ANOVA with Šídák’s multiple comparisons test). […]
CaMKII-mediated phosphorylation of GluA1 S831 or GluN2B S1303 was measured by in vitro kinase reaction with a purified GST–GluA1 C-terminal tail or GST-GluN2B C-terminal tail. […]

NCCNc1cccc(-c2ccnc3[nH]c4ccccc4c23)c1 [AS283]
remaining activity at 1 µM [1]: 49% | LTP quantification (fEPSP slope, last 10 min post-HFS, normalized to baseline) ([2]; AS283 10uM): 152.979% and 135.393% and 153.277% | fEPSP slope (normalized to baseline) ([2]; AS283 10uM, Time (min) -4): 104.452% and 102.587% and 97.9392% | fEPSP slope (normalized to baseline) ([2]; AS283 10uM, Time (min) -5): 97.455% and 97.2289% and 102.244% | fEPSP slope (normalized to baseline) ([2]; AS283 10uM, Time (min) -6): 99.4541% and 99.1179% and 105.524% | fEPSP slope (normalized to baseline) ([2]; AS283 10uM, Time (min) -7): 101.753% and 102.819% and 102.999% | fEPSP slope (normalized to baseline) ([2]; AS283 10uM, Time (min) -8): 95.5559% and 104.449% and 104.231% | fEPSP slope (normalized to baseline) ([2]; AS283 10uM, Time (min) -9): 92.9571% and 97.0204% and 97.7789% | fEPSP slope (normalized to baseline) ([2]; AS283 10uM, Time (min) -10): 99.8539% and 98.6506% and 100.547% | fEPSP slope (normalized to baseline) ([2]; AS283 10uM, Time (min) -11): 103.952% and 101.834% and 101.778% | fEPSP slope (normalized to baseline) ([2]; AS283 10uM, Time (min) -12): 101.553% and 101.652% and 98.229% | fEPSP slope (normalized to baseline) ([2]; AS283 10uM, Time (min) -13): 102.353% and 99.9177% and 99.6311% | LTP quantification (fEPSP slope, last 10 min post-HFS, normalized to baseline) ([2]; AS283 30uM): 160.389% and 108.532% and 181.434% and 162.892% and 172.846% and 114.329% and 178.329% | fEPSP slope (normalized to baseline) ([2]; AS283 30uM, Time (min) -4): 104.315% and 98.2615% and 101.701% and 97.3586% and 99.2226% and 91.7266% and 101.169% | fEPSP slope (normalized to baseline) ([2]; AS283 30uM, Time (min) -5): 101.784% and 110.1% and 99.6307% and 92.306% and 111.307% and 95.4361% and 105.648% | fEPSP slope (normalized to baseline) ([2]; AS283 30uM, Time (min) -6): 100.097% and 110.1% and 101.96% and 97.1642% and 103.039% and 95.0989% and 110.591% | fEPSP slope (normalized to baseline) ([2]; AS283 30uM, Time (min) -7): 104.877% and 108.522% and 113.432% and 111.35% and 97.9505% and 103.53% and 108.737% | fEPSP slope (normalized to baseline) ([2]; AS283 30uM, Time (min) -8): 104.034% and 98.6561% and 118.004% and 96.7756% and 91.5901% and 101.506% and 110.436% | fEPSP slope (normalized to baseline) ([2]; AS283 30uM, Time (min) -9): 106.283% and 106.154% and 107.653% and 91.3344% and 103.039% and 101.844% and 106.575% | fEPSP slope (normalized to baseline) ([2]; AS283 30uM, Time (min) -10): 103.19% and 102.997% and 101.442% and 97.5529% and 105.583% and 95.4361% and 107.965% | fEPSP slope (normalized to baseline) ([2]; AS283 30uM, Time (min) -11): 100.66% and 97.0777% and 100.58% and 104.937% and 103.675% and 93.0755% and 112.753% | fEPSP slope (normalized to baseline) ([2]; AS283 30uM, Time (min) -12): 100.379% and 102.602% and 99.6307% and 99.8848% and 96.6784% and 98.4712% and 119.858% | fEPSP slope (normalized to baseline) ([2]; AS283 30uM, Time (min) -13): 101.784% and 99.0508% and 93.2474% and 96.5813% and 96.6784% and 98.8084% and 114.606% | effect on LTP induction in WT mice ([2]; AS283 10 or 30 µM): failed to block

CC(C)(C)n1nc(Cc2cccc3ccccc23)c2c(N)ncnc21 [NM-PP1]
effect on pT286 for CaMKII WT [3]: did not affect
